Legend:
SGLT2 = target: T1, SGLT2 (Homo sapiens, UniProt P31639); assay: 14C-AMG uptake in BHK cells transfected with SGLT2 (96-well cell-based assay); conditions: 2 mM AMG, 37° C., 90 min
T1 construct: expressed in transfected cells
T1 sequence (P31639 1-672): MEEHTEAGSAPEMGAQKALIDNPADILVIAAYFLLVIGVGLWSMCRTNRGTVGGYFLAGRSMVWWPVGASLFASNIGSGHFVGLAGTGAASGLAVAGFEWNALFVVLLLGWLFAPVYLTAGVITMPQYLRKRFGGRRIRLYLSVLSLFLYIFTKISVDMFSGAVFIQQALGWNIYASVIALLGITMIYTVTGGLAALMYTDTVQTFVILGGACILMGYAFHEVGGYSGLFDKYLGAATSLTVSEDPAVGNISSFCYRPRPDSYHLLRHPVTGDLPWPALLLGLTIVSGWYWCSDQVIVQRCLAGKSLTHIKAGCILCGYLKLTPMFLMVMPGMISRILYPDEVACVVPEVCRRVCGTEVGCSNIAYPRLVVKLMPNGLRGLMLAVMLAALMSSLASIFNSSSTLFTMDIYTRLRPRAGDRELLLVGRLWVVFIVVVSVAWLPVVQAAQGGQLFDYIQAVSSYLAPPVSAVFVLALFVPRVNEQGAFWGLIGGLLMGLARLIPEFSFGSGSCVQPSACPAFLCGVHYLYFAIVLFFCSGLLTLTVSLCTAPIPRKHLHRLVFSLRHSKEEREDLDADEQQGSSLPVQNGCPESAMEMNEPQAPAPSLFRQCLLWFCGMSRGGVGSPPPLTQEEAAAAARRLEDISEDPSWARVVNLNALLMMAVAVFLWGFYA
Source text: (§1) The compounds can be tested for their SGLT inhibition properties by means of BHK cells expressing SGLT1 and SGLT2. The production of the cells and the testing can be carried out as described below.
To construct the SGLT2 expression vector (KL224), the SLC5A2 gene (homologous to NM_003041) was amplified from a cDNA library using standard PCR technology and cloned over NheI/XhoI sites into PCI-neo expression vector (Promega) containing neomycin as a selection marker. In this vector, transcription uses the enhancer/promoter of human cytomegalovirus and the SV40 polyadenylation signal.
(§2) The final vector KL224 together with an additional vector containing a dihydrofolate reductase gene as a selection marker was introduced into cells. […] After growth for 2-3 weeks, the cells were cloned (0.5 cells/well) and the clones were investigated for SGLT expression in radioactivity uptake tests. […]
(§3) BHK cells (transfected with SGLT1 or SGLT2) were seeded into 96-well microtitre plates (Cultureplates, Perkin Elmer). […] The radioactivity was counted in a Topcount microplate scintillation counter (Perkin Elmer). The non-specific uptake was determined in sodium-free assay buffer (266 mM sucrose, 2 mM KCl, 1 mM CaCl2, 1 mM MgCl2, 10 mM HEPES, 5 mM Tris, adjusted to pH 7.4 using 1 M KOH).

SGLT1 = target: T2, SGLT1 (Homo sapiens, UniProt P13866); assay: 14C-AMG uptake in BHK cells transfected with SGLT1 (96-well cell-based assay); conditions: 50 μM AMG, 37° C., 90 min
T2 construct: expressed in transfected cells
T2 sequence (P13866 1-664): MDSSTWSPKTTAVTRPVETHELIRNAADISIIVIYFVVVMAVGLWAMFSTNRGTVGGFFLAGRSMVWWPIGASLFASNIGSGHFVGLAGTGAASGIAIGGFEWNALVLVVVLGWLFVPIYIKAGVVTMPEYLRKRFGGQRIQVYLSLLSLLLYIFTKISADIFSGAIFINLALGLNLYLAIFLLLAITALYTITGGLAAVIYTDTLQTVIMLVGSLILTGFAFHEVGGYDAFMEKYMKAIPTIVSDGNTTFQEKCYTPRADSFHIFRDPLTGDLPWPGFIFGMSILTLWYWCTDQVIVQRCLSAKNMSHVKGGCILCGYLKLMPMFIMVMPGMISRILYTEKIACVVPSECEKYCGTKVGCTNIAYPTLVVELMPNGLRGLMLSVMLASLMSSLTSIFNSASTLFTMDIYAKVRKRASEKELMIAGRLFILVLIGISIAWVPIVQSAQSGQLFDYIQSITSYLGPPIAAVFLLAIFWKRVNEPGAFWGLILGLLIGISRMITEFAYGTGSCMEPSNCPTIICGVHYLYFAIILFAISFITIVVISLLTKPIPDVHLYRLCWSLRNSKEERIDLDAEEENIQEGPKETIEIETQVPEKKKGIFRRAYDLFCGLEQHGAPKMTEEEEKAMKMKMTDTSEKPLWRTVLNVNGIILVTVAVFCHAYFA
Source text: as §1
To construct the SGLT1 expression vector (KL225), the SLC5A1 gene (homologous to NM-000343) was amplified from a cDNA library using standard PCR technology and cloned over NheI/XhoI sites into the pcDNA3.1 expression vector (Invitrogen) containing neomycin as a selection marker. In this vector, transcription uses the enhancer/promoter of human cytomegalovirus.
as §2, with “KL225” for “KL224”
as §3

| IC50 (SGLT2) [nM] | IC50 (SGLT1) [nM] | Structure (SMILES) |
| --- | --- | --- |
| 10 to 1000 | 1000 to 10000 | COc1cccc(OCC(N)=O)c1-c1c(C#N)c2ccccn2c1Nc1c(C)cccc1C [Compound A1, 2-{2-[1-cyano-3-(2,6-dimethylphenylamino)indolizin-2-yl]-3-methoxyphenoxy}acetamide] |
| 10 to 1000 | 1000 to 10000 | Cc1cccc(C)c1Nc1c(-c2ccccc2OCC(N)=O)c(C#N)c2ccccn12 [Compound A2, 2-{2-[1-Cyano-3-(2,6-dimethylphenylamino)indolizin-2-yl]phenoxy}acetamide] |

— patent publication US8106067B2, “Indolizine derivatives and the use thereof as antidiabetics” (Merck Patent GmbH, priority 2006, dated 2012)
